Data published in patent US8796321B2, “Compounds, compositions and methods comprising oxadiazole derivatives” (PATH Drug Solutions, priority 2008, dated 2014).

test system: cholera toxin (CTX) induced net fluid secretion in intestinal loops; set-up: species or system mice (CD1 strain); conditions: mouse, in vivo

| Compound | closed loop % inhibition @ 10 μg [%] | closed loop % inhibition @ 100 μg [%] |
| --- | --- | --- |
| CC(C)(C)C(=O)CN(Cc1cccc(C(F)(F)F)c1)C(=O)c1nc(-c2cc(Br)c(O)c(Br)c2)no1 [compound 1, 3-(3,5-dibromo-4-hydroxyphenyl)-N-(3,3-dimethyl-2-oxobutyl)-N-(3-(trifluoromethyl)benzyl)-1,2,4-oxadiazole-5-carboxamide] | 69.4 | 87.1 |
| O=C(NCc1ccc(Oc2ccccc2)cc1)c1nc(-c2cc(Br)c(O)c(Br)c2)no1 [compound 13, 3-(3,5-dibromo-4-hydroxyphenyl)-N-(4-phenoxybenzyl)-1,2,4-oxadiazole-5-carboxamide] | 88.6 | 94.7 |
| O=C(NCc1cccc(OC(F)(F)F)c1)c1noc(-c2cc(Br)c(O)c(Br)c2)n1 [compound 65, 5-(3,5-dibromo-4-hydroxyphenyl)-N-(3-(trifluoromethoxy)benzyl)-1,2,4-oxadiazole-3-carboxamide] |  | 94.6 |
| O=C(NCc1cc(F)cc(F)c1)c1noc(-c2cc(Cl)c(O)c(Cl)c2)n1 [compound 112, 5-(3,5-dichloro-4-hydroxyphenyl)-N-(3,5-difluorobenzyl)-1,2,4-oxadiazole-3-carboxamide] |  | 51 |
| O=C(NCc1cccc(OC(F)(F)F)c1)c1noc(-c2cc(Cl)c(O)c(Cl)c2O)n1 [compound 120, 5-(3,5-dichloro-2,4-dihydroxyphenyl)-N-(3-(trifluoromethoxy)benzyl)-1,2,4-oxadiazole-3-carboxamide] |  | 62.3 |
